# Assay results from patent US20260083708A1, “IL-17 MODULATORS AND USES THEREOF” (NNOCARE PHARMA INC., priority 2024, published 2026).
# Experiments:
# IL-17AA and IL-17RA = biological target: T1, IL-17AA and IL-17RA (Homo sapiens, UniProt Q16552); experiment: Competitive inhibition of human IL-17AA and IL-17RA binding (HTRF); conditions: recombinant IL-17AA (His-tag) and IL-17RA (hFc-tag); read-out: IC50 for Inhibiting IL-AA/IL-RA Binding
# T1 construct: purchased Sino Biological 12047-H07B (IL-17AA); 10895-H02H (IL-17RA)
# T1 sequence (Q16552 24-155): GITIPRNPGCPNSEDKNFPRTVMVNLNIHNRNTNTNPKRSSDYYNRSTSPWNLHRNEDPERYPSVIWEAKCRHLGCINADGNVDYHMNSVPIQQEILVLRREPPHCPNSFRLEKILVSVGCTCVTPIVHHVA
# Procedure: Example 42. Competitive Inhibition of Human IL-17AA and IL-17RA Binding
# Recombinant IL-17AA (His-tag, Catalog Number 12047-H07B) and IL-17RA (hFc-tag, Catalog Number 10895-H02H) were purchased from Sino Biological. In the experiment, 10 μL of IL-17AA (1 nM) or IL-17RA (1 nM) was added to 10 μL of anti-6His-Tb (0.4 nM, Revvity, Catalog Number 61HISTLF) or anti-human IgG-d2 (1 μg/mL, anti-human IgG-d2, Revvity, Catalog Number 61HFCDAF), respectively and incubated at room temperature for 1 hour. Compounds were serially diluted starting from 10 μM. 5 μL of each compound solution was incubated with 5 μL of a mixture of IL-17AA and anti-6His-Tb at room temperature for 2 hours. After pre-incubation, to which was added 10 μL of a mixture of IL-17RA and anti-human IgG-d2, and incubation was continued for additional 20 minutes. Subsequently, a microplate reader (Envision, PerkinElmer) was used to detect fluorescence intensity at 615 nm and 665 nm, and the ratio of intensity thereof indicates the degree of IL-17AA and IL-17RA interaction. The ratio of intensity in the absence of tested compound was the highest value of binding between IL-17AA and IL-17RA, and the ratio of intensity in the absence of IL-17AA was the lowest value.
# (§1) Therefore, the percentage of inhibition of tested compound was calculated as
# Experimental results were analyzed using XLfit (IDBS) for 4-parameter nonlinear fitting analysis, to provide the IC50 value for each tested compound (Table 1).
# [1] = test system: IL-17AF-induced IL-17 signaling pathway; experiment: Inhibition of IL-17AF-induced IL-17 signaling pathway; assay type: cell-based; conditions: Homo sapiens; IL-17AF used instead of IL-17AA; read-out: IC50 for Inhibiting IL-AF Signaling
# Source text: (§2) Interleukin-17 (IL-17) reporter cell line (HEK-Blue IL-17, InvivoGen, Catalog Number hkb-i117) is created by genetically engineering human IL-17RA/IL-17RC heterodimeric receptor and downstream adapter protein ACT1 into human embryonic kidney 293 cells (HEK293). These cells also express secreted embryonic alkaline phosphatase (SEAP) reporter gene induced by NF-κB and AP-1. Therefore, IL-17AA can activate NF-κB and AP-1 signaling pathways inside the cells by binding to IL-17RA/RC on cell membrane, leading to expression of SEAP protein. After a colorimetric reaction between SEAP protein and Quanti-Blue solution, the absorbance at 620 nm is measured using a microplate reader (BioTek H1M, Agilent, Catalog Number SH1M-SN) to determine IL-17AA-activated signaling pathway.
# (§3) In the experiment, HEK-Blue IL-17 cells were cultured at 37° C. under 5% CO2 conditions using the recommended medium from InvivoGen's instruction. Compounds were serially diluted starting from 10 μM. 4 μL of each compound solution was added to 32 μL of cells (10,000 cells) at 37° C. for 1 hour. After pre-incubation, 4 μL of IL-17AA with a final concentration of 2.5 ng/mL (Sino Biological, Catalog Number 12047-HNAS) was added to the cells, and incubation was continued for additional 20 hours. After incubation, 5 μL of cell culture supernatant was added to 45 μL of Quanti-Blue for the colorimetric reaction. The group without tested compound had the highest absorbance at 620 nm, and the group without IL-17AA had the lowest absorbance at 620 nm.
# as §1
# (§4) Experimental results were analyzed using XLfit (IDBS) for 4-parameter nonlinear fitting analysis to provide the IC50 value for each tested compound (Table 1).
# Example 44. Inhibition of IL-17AF-Induced IL-17 Signaling Pathway
# The same experimental procedure to Example […] was followed where IL-17AF was used instead of IL-17AA.
# [2] = test system: IL-17AA-induced IL-17 signaling pathway; experiment: Inhibition of IL-17AA-induced IL-17 signaling pathway in HEK-Blue IL-17 reporter cells (SEAP); assay type: cell-based; conditions: Homo sapiens; HEK-Blue IL-17 cells, IL-17AA 2.5 ng/mL, 20 hours; read-out: IC50 for Inhibiting IL-AA Signaling
# Source text: Example 43. Inhibition of IL-17AA-Induced IL-17 Signaling Pathway
# as §2, §3, §1, §4
SMILES,IC50 (IL-17AA and IL-17RA),IC50 [1],IC50 [2]
"CCn1nccc1C(=O)N[C@H](C(=O)Nc1ccc([C@H](C)[C@@H](NC(=O)[C@H](C)OC)c2nncn2CC2CC2)cc1F)C(C1CC1)C1CC1 [Compound 16, N-((S)-1,1-dicyclopropyl-3-((4-((1R,2S)-1-(4-(cyclopropylmethyl)-4H-1,2,4-triazol-3-yl)-1-((S)-2-methoxypropanamido)propan-2-yl)-2-fluorophenyl)amino)-3-oxopropan-2-yl)-1-ethyl-1H-pyrazole-5-carboxamide]",6.3 nM,13 nM,6.3 nM
"CCn1nccc1C(=O)N[C@H](C(=O)Nc1ccc([C@H](C)[C@@H](NC(=O)COC)c2nnc(C)s2)cc1F)C(C1CC1)C1CC1 [Compound 17, N-((S)-1,1-dicyclopropyl-3-((2-fluoro-4-((1R,2S)-1-(2-methoxyacetamido)-1-(5-methyl-1,3,4-thiadiazol-2-yl)propan-2-yl)phenyl)amino)-3-oxopropan-2-yl)-1-ethyl-1H-pyrazole-5-carboxamide]",442 nM,251 nM,85 nM
"CCn1nccc1C(=O)N[C@H](C(=O)Nc1ccc([C@H](C)[C@@H](NC(=O)COC)c2nnc(C)n2CC2CC2)cc1F)C(C1CC1)C1CC1 [Compound 18, N-((S)-1,1-dicyclopropyl-3-((4-((1R,2S)-1-(4-(cyclopropylmethyl)-5-methyl-4H-1,2,4-triazol-3-yl)-1-(2-methoxyacetamido)propan-2-yl)-2-fluorophenyl)amino)-3-oxopropan-2-yl)-1-ethyl-1H-pyrazole-5-carboxamide]",17 nM,51 nM,14 nM
"CCn1nccc1C(=O)N[C@H](C(=O)Nc1ccc([C@H](C)[C@@H](NC(=O)COC)c2ncnn2CC2CC2)cc1F)C(C1CC1)C1CC1 [Compound 19, N-((S)-1,1-dicyclopropyl-3-((4-((1R,2S)-1-(1-(cyclopropylmethyl)-1H-1,2,4-triazol-5-yl)-1-(2-methoxyacetamido)propan-2-yl)-2-fluorophenyl)amino)-3-oxopropan-2-yl)-1-ethyl-1H-pyrazole-5-carboxamide]",4.5 nM,4 nM,2.6 nM
"CCn1nccc1C(=O)N[C@H](C(=O)Nc1ccc([C@H](C)[C@@H](NC(=O)COC)c2ncn(CC3CC3)n2)cc1F)C(C1CC1)C1CC1 [Compound 20, N-((S)-1,1-dicyclopropyl-3-((4-((1R,2S)-1-(1-(cyclopropylmethyl)-1H-1,2,4-triazol-3-yl)-1-(2-methoxyacetamido)propan-2-yl)-2-fluorophenyl)amino)-3-oxopropan-2-yl)-1-ethyl-1H-pyrazole-5-carboxamide]",20 nM,50 nM,14 nM
"CCn1nccc1C(=O)N[C@H](C(=O)Nc1ccc([C@H](C)[C@@H](NC(=O)N(C)C2CC2)c2nncn2CC2CC2)cc1F)C(C1CC1)C1CC1 [Compound 21, N-((S)-1,1-dicyclopropyl-3-((4-((1R,2S)-1-(3-cyclopropyl-3-methylureido)-1-(4-(cyclopropylmethyl)-4H-1,2,4-triazol-3-yl)propan-2-yl)-2-fluorophenyl)amino)-3-oxopropan-2-yl)-1-ethyl-1H-pyrazole-5-carboxamide]",2.2 nM,3.7 nM,1.8 nM
"CC(=O)N[C@@H](c1nncn1CC1CC1)[C@@H](C)c1ccc(NC(=O)[C@@H](NC(=O)c2ccnn2C(C)C)C(C2CC2)C2CC2)c(F)c1 [Compound 22, N-((S)-1-((4-((1R,2S)-1-acetamido-1-(4-(cyclopropylmethyl)-4H-1,2,4-triazol-3-yl)propan-2-yl)-2-fluorophenyl)amino)-3,3-dicyclopropyl-1-oxopropan-2-yl)-1-isopropyl-1H-pyrazole-5-carboxamide]",13 nM,46 nM,28 nM
"CCn1nccc1C(=O)N[C@H](C(=O)Nc1ccc([C@H](C)[C@@H](NC(=O)COC)c2nncn2CC23CC(F)(C2)C3)cc1F)C(C1CC1)C1CC1 [Compound 23, N-((S)-1,1-dicyclopropyl-3-((2-fluoro-4-((1R,2S)-1-(4-((3-fluorobicyclo[1.1.1]pentan-1-yl)methyl)-4H-1,2,4-triazol-3-yl)-1-(2-methoxyacetamido)propan-2-yl)phenyl)amino)-3-oxopropan-2-yl)-1-ethyl-1H-pyrazole-5-carboxamide]",21 nM,91 nM,25 nM
"CCn1nccc1C(=O)N[C@H](C(=O)Nc1ccc([C@H](C)[C@@H](NC(=O)COC)c2nnnn2CC2CC2)cc1F)C(C1CC1)C1CC1 [Compound 24, N-((S)-1,1-dicyclopropyl-3-((4-((1R,2S)-1-(1-(cyclopropylmethyl)-1H-tetrazol-5-yl)-1-(2-methoxyacetamido)propan-2-yl)-2-fluorophenyl)amino)-3-oxopropan-2-yl)-1-ethyl-1H-pyrazole-5-carboxamide]",3.2 nM,10 nM,2.5 nM
"CCn1nccc1C(=O)N[C@H](C(=O)Nc1ccc([C@H](C)[C@@H](NC(=O)COC)c2nc(C)nn2CC2CC2)cc1F)C(C1CC1)C1CC1 [Compound 25, N-((S)-1,1-dicyclopropyl-3-((4-((1R,2S)-1-(1-(cyclopropylmethyl)-3-methyl-1H-1,2,4-triazol-5-yl)-1-(2-methoxyacetamido)propan-2-yl)-2-fluorophenyl)amino)-3-oxopropan-2-yl)-1-ethyl-1H-pyrazole-5-carboxamide]",57 nM,313 nM,115 nM
"CCc1nonc1C(=O)N[C@H](C(=O)Nc1ccc([C@H](C)[C@@H](NC(=O)[C@H](C)OC)c2nncn2CC2CC2)cc1F)C(C1CC1)C1CC1 [Compound 26, N-((S)-1,1-dicyclopropyl-3-((4-((1R,2S)-1-(4-(cyclopropylmethyl)-4H-1,2,4-triazol-3-yl)-1-((S)-2-methoxypropanamido)propan-2-yl)-2-fluorophenyl)amino)-3-oxopropan-2-yl)-4-ethyl-1,2,5-oxadiazole-3-carboxamide]",0.8 nM,4.5 nM,2 nM
"CCn1nccc1C(=O)N[C@H](C(=O)Nc1ccc([C@H](C)[C@@H](NC(=O)COC)c2nccnc2OC2CC2)cc1F)C(C1CC1)C1CC1 [Compound 27, N-((S)-1-((4-((1R,2S)-1-(3-cyclopropoxypyrazin-2-yl)-1-(2-methoxyacetamido)propan-2-yl)-2-fluorophenyl)amino)-3,3-dicyclopropyl-1-oxopropan-2-yl)-1-ethyl-1H-pyrazole-5-carboxamide]",27 nM,102 nM,39 nM
"CCn1nccc1C(=O)N[C@H](C(=O)Nc1ccc([C@H](C)[C@@H](NC(=O)COC)c2ncccc2CC2CC2)cc1F)C(C1CC1)C1CC1 [Compound 28, N-((S)-1,1-dicyclopropyl-3-((4-((1R,2S)-1-(3-(cyclopropylmethyl)pyridin-2-yl)-1-(2-methoxyacetamido)propan-2-yl)-2-fluorophenyl)amino)-3-oxopropan-2-yl)-1-ethyl-1H-pyrazole-5-carboxamide]",7.8 nM,24 nM,8.4 nM
